Measurements reported in US11555014B2, “High penetration prodrug compositions of prostaglandins and related compounds” (Techfields Pharma Co., Ltd., priority 2006, dated 2023).

Legend:
cat eye = test: Irritative effect or ocular discomfort in the cat eye after topical application; format: in vivo; conditions: dose 0.001% topical, first 2 hours, scale 0 (no discomfort) to 4 (maximal irritation, complete lid closure)
Experimental: Irritative effect or ocular discomfort in the cat eye of naturally occurring and modified prostaglandins and their novel prodrugs were evaluated during the first hours after the topical application of the respective test drug. The ocular discomfort was graded on a scale from 0 to 4, 0 indicating complete absence of any signs of discomfort, and 4 indicating maximal irritation as obvious from complete lid closure.

rabbit eye = test: Conjunctival hyperemia in the rabbit eye after topical application; format: in vivo; conditions: dose 0.001% topical, first 2 hours, scale 0 (no hyperemia) to 4 (marked hyperemia with conjunctive chemosis)
Experimental: Conjunctival hyperemia in the rabbit eye of naturally occurring and modified prostaglandins and their novel prodrugs was evaluated during the first 2 hours after topical application of the respective test drug. The conjunctival hyperemia was graded on a scale from 0 to 4, 0 indicating complete absence of any hyperemia, and 4 indicating marked hyperemia with conjunctive chemosis.

Solubility in water = format: physicochemical
Experimental: 37.7 g (0.1 mol) of sodium 11,15-dihydroxy-9-oxoprost-13-en-1-oate was dissolved in 100 ml of acetonitrile. 26.1 g (0.1 mol) of 2-Bromo-N,N-diethylethylamine.HBr and 8.6 g of sodium bicarbonate were added into the reaction mixture. The mixture was stirred for overnight at RT. The solvents were evaporated off. 250 ml of ethyl acetate was added into the reaction mixture and the mixture was washed with water (3×100 ml). The organic solution was dried over anhydrous sodium sulfate. Sodium sulfate was removed by filtration. 6 g of acetic acid was added into the reaction mixture with stirring. Hexane (200 ml) was added. The solid product was collected by filtration. After drying, it yielded 42 g of the desired product (81.8%). Hygroscopic product; Solubility in water: 100 mg/ml; Elementary analysis: C28H51NO7; MW: 513.37. Calculated % C, 65.47; H, 10.01; N, 2.73; O, 21.80. Found % C, 65.42; H, 10.03; N, 2.70; O, 21.85.
43.7 g (0.1 mol) of 11,15-diacetoxy-9-oxoprosta-5,13-dien-1-oic acid was dissolved in 300 ml of chloroform. 20.6 g of N,N′-Dicyclohexylcarbodiimide was added into the reaction mixture. 11.7 g of N,N-diethylaminoethylamine was added into the reaction mixture. The mixture was stirred for 3 hours at RT. The solid was removed by filtration. The chloroform solution was washed with 5% NaHCO3 (2×100 ml) and water (3×100 ml). The organic solution was dried over anhydrous sodium sulfate. Sodium sulfate was removed by filtration. 6 g of acetic acid was added into the reaction mixture with stirring. Hexane (200 ml) was added. The solid product was collected by filtration. After drying, it yielded 45 g of the desired product (85.8%). Hygroscopic product; Solubility in water: 100 mg/ml; Elementary analysis: C34H59NO9S; MW: 657.90. Calculated % C, 62.07; H, 9.04; N, 2.13; O, 21.89; S, 4.87. Found % C, 62.02; H, 9.06; N, 2.11; O, 21.95; S, 4.86.
49.9 g (0.1 mol) of 9,11,15-triacetoxyprost-13-en-1-oic acid was dissolved in 300 ml of chloroform. 20.6 g of N,N′-Dicyclohexylcarbodiimide was added into the reaction mixture. 13.1 g of dimethylaminoethyl mercaptan was added into the reaction mixture. The mixture was stirred for 3 hours at RT. The solid was removed by filtration. The chloroform solution was washed with 5% NaHCO3 (2×100 ml) and water (3×100 ml). The organic solution was dried over anhydrous sodium sulfate. Sodium sulfate was removed by filtration. 6 g of acetic acid was added into the reaction mixture with stirring. Hexane (200 ml) was added. The solid product was collected by filtration. After drying, it yielded 45 g of the desired product (85.8%). Hygroscopic product; Solubility in water: 100 mg/ml; Elementary analysis: C32H53NO9; MW: […] Calculated % C, 64.51; H, 8.97; N, 2.35; O, 24.17. Found % C, 64.47; H, 8.99; N, 2.34; O, 24.20.
37.7 g (0.1 mol) of sodium 9,11,15-trihydroxyprosta-5,13-dien-1-oate was dissolved in 100 ml of acetonitrile. 39 g (0.15 mol) of 2-Bromo-N,N-diethylethylamine.HBr in ethyl acetate was added into the reaction mixture. The mixture was stirred for 3 h at RT. Then 8 g of sodium bicarbonate was added into the reaction mixture. The mixture is stirred for another 2 h at RT. The solvents were evaporated off. 250 ml of ethyl acetate was added into the reaction mixture and the mixture was washed with water (3×100 ml). The organic solution was dried over anhydrous sodium sulfate. Sodium sulfate was removed by filtration. 6 g of acetic acid was added into the reaction mixture with stirring. […] Calculated % C, 65.47; H, 10.01; N, 2.73; O, 21.80. […]

[1] = system: cats with ocular hypertension; test: Intraocular pressure (IOP) reduction in cats with ocular hypertension produced by laser trabeculoplasty; format: in vivo, cat; conditions: for Intraocular pressure, 24 hours after administration / Intraocular pressure, 36 hours after administration / Intraocular pressure, 48 hours after administration / Intraocular pressure, 60 hours after administration / Intraocular pressure, 72 hours after administration: dose 0.001%, one drop topical every 12 hours, 6 doses; for Intraocular pressure, baseline: prior to treatment, group dosed 0.001%
Experimental: The ability of certain compounds of the present invention to reduce intraocular pressure (IOP) was evaluated in cats with ocular hypertension produced by previously done laser trabeculoplastry. IOP was determined with a pneumatonometer after light corneal anesthesia with dilute proparacaine. Baseline IOP was determined prior to treatment with the test compound aqueous solution. 6 divided doses were administered over a period of 3 days (once every 12 hours). IOP was determined 24 hours after the initial dose and then once every 12 hours. The therapeutically efficient amount is typically between 0.001 and 0.01% in pH 7.2 phosphate buffer (0.1 M). The treatment was carried out in that one drop (about 30 micro liter) of the composition. The results of N,N-diethylaminoethyl 11,15-dihydroxy-9-oxoprost-13-en-1-oate.AcOH (A), N,N-diethylaminoethyl 11,15-dihydroxyl-9-oxoprosta-5,13-dien-1-oate.AcOH (B), N,N-diethylaminoethyl 9,11,15-trihydroxyprosta-5,13-dien-1-oate.AcOH(C), N,N-diethylaminoethyl 9,11-dihydroxy-15-keto-20-ethylprost-5,13-dien-1-oate.AcOH (9,11-dihydroxy-15-keto-20-ethylprostaglandin F2α N,N-diethylaminoethyl ester) (D), N,N-diethylaminoethyl (Z)-7-{(1R,2R,3R,5S)-3,5-dihydroxy-2-[(1E,3R)-3-hydroxy-4-[(α,α,α-trifluoro-m-tolyl)oxy]-1-butenyl]cyclopentyl}-5-heptenoate.AcOH (E), N,N-diethylaminoethyl (Z)-7{(1R,2R,3R,5S)-3,5-dihydroxy-2-[(3R)-3-hydroxy-5-phenylpentyl]cyclopentyl}-5-heptenoate.AcOH (F), and N,N-diethylaminoethyl (Z)-7-{(1R,2R,3R,5S)-3,5-Dihydroxy-2-[(1E,3S)-3-hydroxy-5-phenyl-1-pentenyl]cyclopentyl}-heptenoate.AcOH (G) are shown in Table 2.

[2] = In vitro penetration rate across isolated human skin in modified Franz cells; conditions: 10% solution in pH 7.4 phosphate buffer (0.2 M), n=5
Experimental: The penetration rates of HPPs and their parent drugs through human skin were measured in vitro by modified Franz cells. The Franz cells have two chambers, the top sample chamber and the bottom receiving chamber. The human skin tissue (360-400 μm thick) that separates the top and the receiving chambers was isolated from the anterior or posterior thigh areas.
The compound tested (2 mL, 20% in 0.2 M phosphate buffer, pH. 7.4) were added to the sample chamber of a Franz cell. The receiving chamber contains 10 ml of 2% bovine serum albumin in saline which was stirred at 600 rpm. The cumulative amounts of the tested compounds penetrating the skin versus time were determined by high-performance liquid chromatography (HPLC) method.

rats = test: Sexual behaviour (solicitation, copulation) of rats after application to genital area; format: in vivo, rat
Experimental: The HPP of the invention can diffuse through human skin in very high rate (˜1 mg/h/cm^2) and can provide almost side-effects-free methods of treating erectile dysfunction or enhancing female sexual arousal. About 0.01 ml of 0.0005% [˜0.05 μg (microgram)] N,N-diethylaminoethyl 11,15-dihydroxy-9-oxoprost-13-en-1-oate.AcOH in pH 7.0 phosphate buffer (0.1 M) was applied to genital area of male rats (30 rats) once per day for 5 days.
When same amount of N,N-diethylaminoethyl 11,15-dihydroxy-9-oxoprost-13-en-1-oate.AcOH in pH 7.0 phosphate buffer (0.1 M) were applied to genital area of both male rats (30 rats) and female rats (30 rates) once per day for 5 days.

[3] = Milosovich et al., J. Pharm. Sci., 82, 227 (1993); cited from earlier work
[4] = about 0.01 ml of 0.0005% (~0.05 μg) applied to genital area of male rats once per day for 5 days
[5] = same amount applied to genital area of both male and female rats once per day for 5 days

Molecule	Degree of irritative effect (cat eye)	Degree of irritative effect (conjunctival hyperemia) (rabbit eye)	Solubility in water (Solubility in water)	Intraocular pressure, 24 hours after administration [1]	Intraocular pressure, 36 hours after administration [1]	Intraocular pressure, 48 hours after administration [1]	Intraocular pressure, 60 hours after administration [1]	Intraocular pressure, 72 hours after administration [1]	Intraocular pressure, baseline [1]	In vitro penetration rate (apparent flux), prodrug compounds [2]	Increase in copulation compared to rats not given the drug (rats; [4])	Increase in solicitation compared to rats not given the drug (rats; [4])	Discomfort of treated rats (rats; applied to genital area of rats once per day for 5 days)	Increase in copulation compared to rats not given the drug (rats; [5])	Increase in solicitation compared to rats not given the drug (rats; [5])	Diffusion through human skin, times faster than the parent drug (TS) [3]
CC(=O)O.CCCCCC(O)C=C[C@H]1C(O)CC(O)[C@@H]1CC=CCCCC(=O)OCCN(CC)CC (some centres unmarked) [N,N-diethylaminoethyl 9,11,15-trihydroxyprosta-5,13-dien-1-oate.AcOH]	1	1	100 mg/mL	15.5 ± 0.5	15.6 ± 0.6	15.7 ± 0.5	15.6 ± 0.7	15.5 ± 0.6	22.5 ± 0.7	0.94 mg/cm^2/h						
CC(=O)O.CCCCCC(O)C=CC1C(O)CC(=O)C1CCCCCCC(=O)OCCN(CC)CC (centres unmarked) [N,N-diethylaminoethyl 11,15-dihydroxy-9-oxoprost-13-en-1-oate.AcOH]			100 mg/mL							1.01 mg/cm^2/h	4 fold	6 fold	did not show any discomfort	6 fold	6 fold	
CC(=O)O.CCN(CC)CCOC(=O)CCC/C=C\C[C@@H]1[C@@H](/C=C/[C@@H](O)CCc2ccccc2)[C@H](O)C[C@@H]1O [N,N-diethylaminoethyl (Z)-7-{(1R,2R,3R,5S)-3,5-Dihydroxy-2-[(1E,3S)-3-hydroxy-5-phenyl-1-pentenyl]cyclopentyl}-heptenoate.AcOH]	1	1		15.2 ± 0.6	15.4 ± 0.5	15.5 ± 0.4	15.4 ± 0.6	15.4 ± 0.5	22.4 ± 0.6	0.85 mg/cm^2/h						
CC(=O)O.CCN(CC)CCOC(=O)CCC/C=C\C[C@@H]1[C@@H](/C=C/[C@@H](O)COc2cccc(C(F)(F)F)c2)[C@H](O)C[C@@H]1O [N,N-diethylaminoethyl (Z)-7-{(1R,2R,3R,5S)-3,5-dihydroxy-2-[(1E,3R)-3-hydroxy-4-[(α,α,α-trifluoro-m-tolyl)oxy]-1-butenyl]cyclopentyl}-5-heptenoate.AcOH]	1	1		15.1 ± 0.4	15.0 ± 0.5	15.0 ± 0.4	14.9 ± 0.3	15.1 ± 0.4	22.1 ± 0.4	0.91 mg/cm^2/h						
CC(=O)O.CCN(CC)CCOC(=O)CCC/C=C\C[C@@H]1[C@@H](CC[C@@H](O)CCc2ccccc2)[C@H](O)C[C@@H]1O [N,N-diethylaminoethyl (Z)-7{(1R,2R,3R,5S)-3,5-dihydroxy-2-[(3R)-3-hydroxy-5-phenylpentyl]cyclopentyl}-5-heptenoate.AcOH]	1	1		15.6 ± 0.5	15.7 ± 0.4	15.6 ± 0.5	15.5 ± 0.4	15.6 ± 0.6	22.5 ± 0.5	0.95 mg/cm^2/h						
CC(=O)O.CCCCCC(C=C[C@H]1C(OC(C)=O)CC(OC(C)=O)[C@@H]1CCCCCCC(=O)SCCN(C)C)OC(C)=O (some centres unmarked) [S—(N,N-dimethylaminoethyl) 9,11,15-triacetoxythioprost-13-en-1-oate.AcOH]			100 mg/mL													
CN(C)CCCC(=O)O[C@H]1CC[C@H]2[C@@H]3CCC4=CC(=O)CC[C@]4(C)[C@H]3CC[C@]12C.Cl [TSBH, testosteronyl-4-dimethylaminobutyrate.HCl]																about 60 times
N,N-diethylaminoethyl 11,15-diacetoxy-9-oxoprosta-5,13-dien-1-oamide.AcOH			100 mg/mL													
